Results as given in the supplement of paper PMC10883282.
± gives the standard deviation of the averaged measurements.

Legend:
Assay in all cases: relative viability vs DMSO control (72 h) (fraction); higher = more viable cells
KHOS-240S = test system: KHOS-240S
How it was run: (§1)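 Plates held 72 h at 37 °C and 5% CO2 contained sarcoma cell lines seeded in 384-well format to reach 80–90% confluence, plus 2.5 µl of serially diluted compound added after 24 h. Source plate concentrations ran from 10 mM to 0.0002 mM, with 0.1% DMSO as vehicle and a 5 µM positive control. Percent growth from ATPLite readings, averaged over up to triplicate wells, gave relative viability. Values were rescaled with 1 as full and 0 as none.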

RD = test system: RD
How it was run: as §1

SW1353 = test system: SW1353
How it was run: as §1

SYO-1 = test system: SYO-1
How it was run: as §1

MES-SA = test system: MES-SA
How it was run: as §1

C=CC(=O)N1CCC(CNc2ncnc(N)c2-c2ccc(Oc3ccccc3)cc2)CC1 [Evobrutinib]
relative viability
Conditions | KHOS-240S | MES-SA | RD | SW1353 | SYO-1
0.00017 µM | 1.09 ± 0.075 | 1 ± 0.05 | 1.06 ± 0.066 | 1.07 ± 0.042 | 1.018 ± 0.0036
0.00051 µM | 1.06 ± 0.022 | 0.9618 ± 0.0083 | 1.09 ± 0.062 | 1.07 ± 0.019 | 1.02 ± 0.026
0.00152 µM | 1.08 ± 0.049 | 0.963 ± 0.027 | 1.09 ± 0.051 | 1.09 ± 0.025 | 1.03 ± 0.017
0.00457 µM | 1.12 ± 0.076 | 0.9579 ± 0.0076 | 1.08 ± 0.05 | 1.06 ± 0.029 | 1.02 ± 0.013
0.01372 µM | 1.1 ± 0.034 | 0.964 ± 0.028 | 1.11 ± 0.045 | 1.02 ± 0.049 | 1.03 ± 0.032
0.04115 µM | 1.09 ± 0.012 | 0.956 ± 0.0076 | 1.11 ± 0.065 | 1.007 ± 0.0014 | 0.998 ± 0.01
0.1235 µM | 1.08 ± 0.033 | 0.968 ± 0.044 | 1.12 ± 0.03 | 1.048 ± 0.0084 | 0.992 ± 0.034
0.3704 µM | 1.07 ± 0.011 | 0.933 ± 0.019 | 1.09 ± 0.088 | 1.02 ± 0.043 | 0.994 ± 0.018
1.111 µM | 1.07 ± 0.017 | 0.928 ± 0.014 | 1.08 ± 0.046 | 0.974 ± 0.067 | 0.965 ± 0.036
3.333 µM | 1.04 ± 0.017 | 0.892 ± 0.055 | 1.07 ± 0.074 | 0.949 ± 0.016 | 0.953 ± 0.024
10 µM | 1.03 ± 0.032 | 0.792 ± 0.035 | 1.11 ± 0.04 | 0.853 ± 0.068 | 0.894 ± 0.059

CNC(=O)c1cccc2cc(Oc3ccnc4cc(OCC5(N)CC5)c(OC)cc34)ccc12 [Lucitanib]
relative viability
Conditions | KHOS-240S | MES-SA | RD | SW1353 | SYO-1
0.00017 µM | 1.1 ± 0.053 | 0.983 ± 0.026 | 1.08 ± 0.033 | 1.11 ± 0.049 | 1.03 ± 0.017
0.00051 µM | 1.05 ± 0.013 | 0.976 ± 0.02 | 1.12 ± 0.04 | 1.06 ± 0.018 | 1.04 ± 0.017
0.00152 µM | 1.1 ± 0.042 | 0.965 ± 0.024 | 1.1 ± 0.035 | 1.04 ± 0.011 | 1.01 ± 0.024
0.00457 µM | 1.06 ± 0.046 | 0.957 ± 0.019 | 1.13 ± 0.031 | 1.067 ± 0.0041 | 0.984 ± 0.025
0.01372 µM | 1.07 ± 0.016 | 0.978 ± 0.038 | 1.09 ± 0.061 | 1.03 ± 0.024 | 0.919 ± 0.051
0.04115 µM | 1.05 ± 0.033 | 0.955 ± 0.018 | 1.129 ± 0.011 | 0.967 ± 0.043 | 0.825 ± 0.014
0.1235 µM | 1.02 ± 0.023 | 0.95 ± 0.029 | 1.13 ± 0.02 | 0.938 ± 0.011 | 0.688 ± 0.028
0.3704 µM | 0.946 ± 0.023 | 0.961 ± 0.027 | 1.142 ± 0.007 | 0.909 ± 0.011 | 0.561 ± 0.038
1.111 µM | 0.817 ± 0.039 | 0.813 ± 0.021 | 1.144 ± 0.01 | 0.8515 ± 0.0058 | 0.504 ± 0.019
3.333 µM | 0.771 ± 0.013 | 0.615 ± 0.019 | 1.12 ± 0.074 | 0.862 ± 0.014 | 0.49 ± 0.036
10 µM | 0.632 ± 0.012 | 0.265 ± 0.017 | 0.9078 ± 0.0037 | 0.874 ± 0.058 | 0.385 ± 0.056
